From patent US20240002474A1, “Systems and Methods for Diagnostic Assessment and Treatment of Insulin Resistance and Hyperglycemia” (The Board of Trustees of the Leland Stanford Junior …, priority 2020, published 2024)

Columns and labels:
HepaRG hepatocytes = assay: Mitochondrial insulin stimulation test (MIST), oxygen consumption rate in HepaRG hepatocytes; type: cell-based, human; conditions: for insulin-dependent mitochondrial respiration / maximal respiration (FCCP uncoupling): HepaRG, 10-minute pretreatment with peptide (10 μM) before exposure to IR or T2D patient serum, vs cells without peptide
Description: Mitochondrial Insulin Stimulation Test. HepaRG hepatocytes or skeletal muscle cells were plated at 40,000 cells/well in Seahorse XF96 plate (Agilent) the day before the assay. Cells were serum starved by culturing in respective media without serum or growth factor supplements. Individual serum was diluted 1:100 in supplement-free media and cells were incubated with media containing individual serum for 4 hours. Cells were washed three times with PBS and incubated with seahorse assay media (buffer free RPMI with mM glucose, mM sodium pyruvate and mM glutamine) for 1 hour in a CO2 free incubation at 37° C. Seahorse measurements were performed every 5 minutes with mixing. Mitochondrial function was perturbed by administration of insulin (100 nM), oligomycin (1 μM), FCCP (2 μM), and rotenone and antimycin A (1 μM). Data was processed by normalizing basal respiration to zero and the maximal respiration following FCCP administration of the positive control (no serum exposure with insulin stimulation) to 1.
IgG purification and fragmentation. IgG purified from serum was diluted (1:100) in Protein G binding buffer (Thermo) and incubated with Protein G Agarose Beads (Thermo) for 4 hours on an orbital shaker at 4° C. Beads were washed three times with Protein G binding buffer and IgG was eluted by incubated beads in Protein G elution buffer, pH 2.7 for 5 minutes, centrifuged and the supernatant was quenched with Tris-HCl buffer, pH 9.0. Purified IgG was buffer exchanged to using 15 kDa spin column to PBS. Purification was validated by immunoblotting. Fab fragments were generated by papain cleavage using Pierce […] (Thermo Scientific) according to manufacturer's protocol.
Peptide Synthesis. SYN746 (QRFCTGHFGGLYPCHGP; SEQ ID NO: 1) and HIV TAT conjugated FcRn C-terminal tail-dominant negative ([…]; SEQ ID Nos: 2 and 3) were synthesized using Fmoc solid phase peptide synthesis and purified using preparative HPLC using aC18 reverse-phase column and characterized by liquid-chromatography mass spectrometry by University of Minnesota Peptide Synthesis Core.

FcRn = FcRn (Homo sapiens, UniProt P55899); conditions: previously published peptide; similar to IgG; cited from earlier work
Sequence of FcRn (P55899 24-297 limits assumed): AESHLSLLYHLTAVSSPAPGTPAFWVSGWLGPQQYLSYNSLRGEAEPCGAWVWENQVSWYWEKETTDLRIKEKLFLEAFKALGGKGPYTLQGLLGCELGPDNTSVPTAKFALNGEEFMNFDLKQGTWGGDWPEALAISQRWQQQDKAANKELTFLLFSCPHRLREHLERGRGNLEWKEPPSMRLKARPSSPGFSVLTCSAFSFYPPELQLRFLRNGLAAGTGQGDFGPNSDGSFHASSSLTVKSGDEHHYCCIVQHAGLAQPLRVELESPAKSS
Sequence of FcRn (P61769 21-119 partner): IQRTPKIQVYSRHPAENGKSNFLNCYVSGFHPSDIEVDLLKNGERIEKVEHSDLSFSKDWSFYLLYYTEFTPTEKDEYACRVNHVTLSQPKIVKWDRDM

Sequence	mitochondrial function or insulin stimulation in control cells (HepaRG hepatocytes; HepaRG control cells, 10-minute pretreatment)	insulin-dependent mitochondrial respiration (HepaRG hepatocytes)	maximal respiration (FCCP uncoupling) (HepaRG hepatocytes)	binding to FcRn (FcRn)
QRFCTGHFGGLYPCHGP (listed as Homo sapiens) [SYN746]	did not affect	dramatic rescue	dramatic rescue	pH-sensitive binding
YGRKKRRQRRRGAPWISLRGDDTGVLLPTP [dominant negative]		significant rescue	significant rescue	
